Data from publication PMC5643462, “Encrypted Antimicrobial Peptides from Plant Proteins” (Scientific Reports, 2017).
Where two headings read alike, the source gives them in different places. No end group written: not given here.

What was measured:
human red blood cells = assay: Cytotoxicity: hemolysis of human red blood cells; type: cell-based; conditions: for Concentration that induced 50% hemolysis: red cells of human
Description: The cytotoxicity of the selected IAPS was performed using human red blood cells in strict accordance with relevant guidelines and regulations (Ethical committee – UnB # 1.939.989). Different concentrations of IAPs (128 µM–0.5 µM) were incubated with a final concentration of 2.5 × 10^5 red blood cells.mL^−1. Briefly, 100 µL of red blood cells was incubated with 100 µL of different concentrations of each IAP, prepared in PBS, for 30 minutes at 37 °C, with constant shaking at 120 rpm. PBS and Triton X-100 0.1% (v/v) were used as negative and positive controls, respectively. After incubation, the solution was centrifuged at 900 × g for five minutes followed by transferring 50 µL of the supernatant to flat-bottom polystyrene 96-well micro plates containing 50 µL of PBS. Microplate reading was performed at a BioTek Multireader, using a wavelength of 540 nm. All tests were performed in 3 biological replicates, composed of 3 biological repetitions each. The obtained data was subtracted by the negative control and relative to the positive control, defined as 100% lysis.

[1] = test system: Moniliophthora perniciosa basidiospores; assay: Inhibition of M. perniciosa basidiospore germination; type: cell-based; conditions: 1 × 10^6 basidiospores mL^−1, one hour with peptide (256-0.5 µM), 24 °C, counted after 4 hours on agar slides, biological triplicates; for IC50: concentration at which at least 50% of basidiospores germination was inhibited, read-out: Inhibitory concentration IC50, M. perniciosa basidiospores germination; for Inhibitory concentration IC95, M. perniciosa basidiospores germination: concentration at which at least 95% of basidiospores germination was inhibited
Description: The antimicrobial potential of T. cacao IAPs for inhibiting M. perniciosa basidiospores was evaluated. Briefly, 1 × 10^6 basidiospores mL^−1 were incubated for one hour with different concentrations of T. cacao IAPs (256-0.5 µM), at 24 °C, in a final volume of 100 µL. Autoclaved dH20 was used as a control. After incubation, 3 droplets of 10 µL each were placed in a slide coated with agar (1.2% (w/v)). Slides were incubated for 4, 24 and 48 hours at 24 °C. Slides were visualized using a DMRXA light microscope (Leica). Approximately 150–200 basidiospores per droplet from each time point were counted and compared to the control condition, which was defined as 100% germination. All experiments were performed in biological triplicates, with 3 technical repetitions each.

[2] = Far-UV circular dichroism, helix percentage in buffer and with LUVs; type: physicochemical; conditions: room temperature, from [θ]222 nm, * = β-sheet structure; for %Hel 2:1 DMPC/DMPG: 40 μM peptide + 2 mM 2:1 DMPC:DMPG LUVs (50 fold excess); for %Hel 2:1 DMPC/DMPG / %Hel DMPC: pH 7.4 buffer; for %Hel DMPC: 40 μM peptide + 2 mM DMPC LUVs (50 fold excess); for %Hel buffer: 40 μM peptide in 20 mM sodium phosphate, 150 mM NaCl, pH 7.4
Description: DMPC and 2:1 DMPC:DMPG (w/w) were dissolved in chloroform and methanol (3:1 v/v) at 10 mg/mL, dried using a rotary evaporator and left 3 hours under high vacuum in a freeze dryer. Phospholipids were then dissolved in 20 mM Sodium phosphate – NaOH, 150 mM NaCl, pH 7.4 and hand-shaken until the formation of a cloudy solution, which was passed 19 times through a 100 nm polycarbonate membrane at 30 °C for the formation of large unilamelar vesicles (LUVs) using a mini-extruder (Avanti Polar Lipids). Phospholipid concentration was estimated according to the ammonium ferrothiocyanate method.
Experiments were conducted on a Jasco-J815 spectropolarimeter (Jasco International Co.). Spectra were acquired at room temperature from 200 to 260 nm as an average of 4 readings using a 0.1 cm path length cell, data pitch of 0.2 nm and a response time of 0.5 s. Data Scans of buffer and 2 mM DMPC and 2:1 DMPC:DMPG LUVs solutions were acquired and subtracted from each peptide data. Peptides were scanned at a concentration of 40 μM in buffer and then 50 fold excess of DMPC and 2:1 DMPC:DMPG LUVs were added, resulting in a molar ratio of 0.02 peptide/phospholipid. The spectra were converted to mean residue ellipticity and readings at [θ]222 nm were used to estimate helix percentages.

Substance | Hemolytic activity (% ± SD) at 1 µM (human red blood cells) [%] | Hemolytic activity (% ± SD) at 2 µM (human red blood cells) [%] | Hemolytic activity (% ± SD) at 4 µM (human red blood cells) [%] | Hemolytic activity (% ± SD) at 8 µM (human red blood cells) | Hemolytic activity (% ± SD) at 16 µM (human red blood cells) [%] | Hemolytic activity (% ± SD) at 32 µM (human red blood cells) [%] | Hemolytic activity (% ± SD) at 64 µM (human red blood cells) | Hemolytic activity (% ± SD) at 128 µM (human red blood cells) [%] | Hemolytic activity of human red blood cells (%) SC50 (human red blood cells) [µM] | Concentration that induced 50% hemolysis (human red blood cells) [µM] | IC50 [1] [µM] | Inhibitory concentration IC95, M. perniciosa basidiospores germination [1] [µM] | %Hel 2:1 DMPC/DMPG [2] [%] | %Hel DMPC [2] [%] | %Hel buffer [2] [%] | Hemolytic activity of human red blood cells (%) SC50 (human red blood cells; SC50 = IAP concentration that at least 50% of red blood cells remain intact, 128 µM–0.5 µM tested, PBS, 30 minutes, 37 °C, absorbance 540 nm) [µM]
ANRLLEAYKMLLKFLGNLR-NH2 [Gr02] | 0.01 ± 0.01 | 0.38 ± 0.09 | 1.23 ± 0.05 | 4.19 ± 0.78% | 7.01 ± 3.48 | 28.33 ± 4.77 | 46.44 ± 7.63% | 68.42 ± 5.45 | 64 | 64 |  |  |  |  |  | 
FFYNVIKIYGNMAGRISK-NH2 [Cs03] | 0.00 ± 0.00 | 0.02 ± 0.00 | 0.01 ± 0.00 | 0.00 ± 0.00% | 0.21 ± 0.05 | 0.99 ± 0.34 | 4.11 ± 1.22% | 14.51 ± 1.55 | >128 |  |  |  |  |  |  | 
GAKLAKKQVRALGKFFSF-NH2 [At03] | 0.00 ± 0.00 | 0.00 ± 0.00 | 0.04 ± 0.01 | 0.02 ± 0.00% | 0.00 ± 0.00 | 0.03 ± 0.00 | 0.17 ± 0.08% | 0.34 ± 0.11 | >128 |  |  |  |  |  |  | 
GFKDLLKGAAKALVKTVLF-NH2 [Asc-8, Ascaphin-8, reference compound] | 0.00 ± 0.00 | 0.32 ± 0.1 | 0.26 ± 0.2 | 14.72 ± 0 .79% | 28.10 ± 4.76 | 54.35 ± 4.5 | 91.90 ± 6.36% | 101.56 ± 9.52 | 16 |  | 8 | 16 |  |  |  | 
GIVLKDLFSEKLRRYKIVIG [Tc09, IAP from Theobroma cacao, NB-ARC domain-containing disease resistance protein, putative] |  |  |  |  |  |  |  |  |  |  |  |  | 0.0 | 19.3 | 12.3 | 
GKILKYLLYLLRKYANLIIR-NH2 [Tc02] | 0.00 ± 0.00 | 0.00 ± 0.00 | 0.40 ± 0.26 | 2.89 ± 1.12% | 6.30 ± 1.59 | 17.39 ± 1.15 | 29.15 ± 2.57% | 50.15 ± 5.15 | 64 | 64 | 8 | 16 |  |  |  | 
GLLFKELQKLIRYQIFIGK-NH2 [Tc10] | 0.00 ± 0.0 | 0.00 ± 0.0 | 0.18 ± 0.04 | 0.06 ± 0.02% | 0.00 ± 0.00 | 0.23 ± 0.10 | 0.68 ± 0.17% | 4.56 ± 0.58 | >128 |  | 32 | 64 |  |  |  | 
GLYNFIKVLGRTVFGLYKQF-NH2 [At04] | 0.00 ± 0.00 | 0.00 ± 0.00 | 0.00 ± 0.00 | 0.09 ± 0.04% | 0.40 ± 0.10 | 0.91 ± 0.20 | 4.12 ± 1.41% | 13.8 ± 2.41 | >128 |  |  |  |  |  |  | 
GSLHGFMYKYLKNMVLTLF-NH2 [At01] | 0.00 ± 0.00 | 0.00 ± 0.00 | 0.00 ± 0.00 | 0.00 ± 0.00% | 0.19 ± 0.01 | 1.05 ± 0.22 | 5.04 ± 2.39% | 14.6 ± 2.14 | >128 |  |  |  |  |  |  | 
IKLRNVLKYLFRIDVIKEDIL-NH2 [Tc03] | 0.03 ± 0.00 | 0.04 ± 0.03 | 0.00 ± 0.00 | 0.17 ± 0.04% | 0.09 ± 0.01 | 0.67 ± 0.30 | 2.29 ± 1.18% | 7.89 ± 1.44 | >128 |  |  |  |  |  |  | 
KVLSKVHTLLKAVLAL-NH2 [At02] | 0.04 ± 0.00 | 0.03 ± 0.00 | 0.02 ± 0.00 | 0.00 ± 0.00% | 0.30 ± 0.16 | 2.41 ± 0.98 | 10.28 ± 4.3% | 23.10 ± 3.41 | >128 |  |  |  |  |  |  | 
LHRLVKLVAALLRGYASKVDTH [Tc08] | 0.11 ± 0.04 | 0.11 ± 0.09 | 0.27 ± 0.10 | 0.30 ± 0.05% | 2.00 ± 1.13 | 15.47 ± 1.58 | 28.81 ± 2.6 7% |  |  |  |  |  |  |  |  | >128
LIKVVNHVQYNVTLHWHGIR [Tc07, IAP from Theobroma cacao, Laccase 17] |  |  |  |  |  |  |  |  |  |  |  |  | 19.9 | 17.1 | 23.5 | 
LLDKLKRTLLSIEAVLI [Tc11, IAP from Theobroma cacao, LRR and NB-ARC domains-containing disease resistance protein] |  |  |  |  |  |  |  |  |  |  |  |  | 56.7 | 57.0 | 45.8 | 
RVLKDVESALRESVANWKIVIG [Tc04, IAP from Theobroma cacao, Purple acid phosphatase 3] |  |  |  |  |  |  |  |  |  |  |  |  | 36.3 | 15.8 | 14.3 | 
VALRLAKEVIKVQQGW [Tc01, IAP from Theobroma cacao, Embryo defective 1381 isoform 2] |  |  |  |  |  |  |  |  |  |  |  |  | 64.8 | 4.5 | 5.0 | 
